What all share (format): cell-based, human
Assay [1] deals with T cell clones. The experiment in a line: IFN-γ ELISPOT of T cell clones with peptides and autologous EBV-LCL. As to conditions: for ELISPOT response (spot-forming units) of T cell clones: subject 15 clones specific for E6 26-40, peptides 10 μM; for T cell clones positive in screening ELISPOT: 94 out of 400 clones screened; for retest of screen-positive T cell clones (ELISPOT): 1000 T cell clone cells in duplicate; for ELISPOT response (spot forming units) of T cell clones: 10 μM; for ELISPOT response of T cell clones: subject 5 clones #1-5 and #17-5; for ELISPOT response of 27G6 clone: subject 1, E7-specific clone. The method, then:
A method described previously was used with some modifications (Larsson, M. et al., 2002). Briefly, a 96-well plate (Millititer, Millipore, Bedford, Mass.) was coated with 5μg/ml primary anti-γ-IFN monoclonal antibody (Mabtech, Stockholm, Sweden) and stored at 4° C. overnight. The plate was then washed 4 times with phosphate buffered saline (PBS) and blocked using RPMI 1640 plus 5% pooled human serum for 1 h at 37° C.
To examine the pattern of CD8 T cell epitopes (FIG. 1), 1×10^5cells of a CD8 T cell line were plated in each well. Overlapping 15-mer peptides (overlapping by the 10 central amino acids) were pooled to 10 groups (each group containing 3 peptides) and tested in duplicate (10 μM for each peptide) along with no peptide control. For screening T cell clones, 50 μl of culture media containing the T cell clones was added with 1×10^5 autologous Epstein-Barr virus-transformed B lymphoblastoid cell line (EBV-LCL) cells (data not shown). With the remaining experiments using T cell clones, 1×10^3 T cell clones were plated along with 1×10^5EBV-LCL cells to reduce the number of T cell clones necessary for analysis. All peptides were used at a concentration of 10 μM.
Autologous EBV-LCL cells were incubated with E6-vac, E7-vac or WR at the multiplicity of infection of 10 for 1 h at 37° C. prior to being plated (FIG. 2B). Phytohemagglutinin (PHA) at 10 μg/ml was added as positive control. After a 24 h incubation at 37° C., the plate was washed 4 times with PS plus 0.05% Tween-20. A total of 50 μl of secondary antibody (1 μg/ml biotin-conjugated anti-IFNγ monoclonal antibody; Mabtech) was added and the plate was incubated for 2 h at 37° C. The plate was then washed 4 times with PBS plus 0.1% Tween-20. Avidin-bound biotinylated horseradish peroxidase H (Vectastain Elite kit; Vector laboratories, Inc., Burligame, Calif.) was added […] and air-dried overnight. Spot forming units were counted using an automated ELISPOT analyzer (Cell Technology, Inc., Jessup, Md.) and were normalized to number of spot forming units per 1×10^6 cells for CD8 T cell lines. Response was considered positive when the number of spot forming units in wells with peptide pools was at least double that seen in the no peptide control wells.
To isolate T cell clones recognizing the E6 antigenic epitope from subject 15, their CD8 T cell lines were stimulated as described above for two additional 7-day cycles, so the frequency of targeted T cell clones would be above the threshold of selection (≧0.1%). The peptide-specific T cells were positively selected using the IFN-γ secretion assay enrichment kit, according to the manufacturer's instructions (Miltenyi Biotec), after stimulating cells with 10 μM each of peptides contained in the E6 16-40 (SEQ ID NO. 36) pool. Selected cells were plated at a concentration of 0.5 cells per well in the presence of a 0.5× feeder cell mixture (Yssel's media containing 1% pooled human serum, penicillin G 100 units/ml, streptomycin 100 μg/ml, 5×10^5/ml irradiated allogenic PBMC, 5×10^4/ml irradiated JY cells, 0.1 μg/ml PHA, with/without 10 u/ml rIL-4). Control wells for growth contained 1 to 1000 cells per well. On day 5, 100 μl of Yssel's media containing 20 U/ml of rIL-2 was added to each well. Growing microcultures were transferred to 24-well plates containing 1 ml of 1× feeder cell mixture per well (Yssel's media containing 1% pooled human serum, penicillin G 100 units/ml, streptomycin 100 μg/ml, 1×10^6/ml irradiated allogenic PBMC, 1×10^5/ml irradiated JY cells and 0.1 μg/ml PHA).
All peptides were used at a concentration of […] and 1×10^3 T cell clones along with 1×10^5 autologous LCL cells were plated to each well.

The test system of another assay is CD8 T cell line. Briefly: IFN-γ ELISPOT of CD8 T cell lines with pooled overlapping 15-mer peptides. On the set-up: key to CD8 T cell response to HPV 16 E6 region: The strongest T cell response for a given subject is indicated with upper case X; x: subdominant response is indicated with lower case X. As to conditions: pooled 15-mer peptides, 10 μM each.
The test system of assay [2] is T cell clones. The experiment in a line: ELISPOT with E6-vac/E7-vac-infected autologous EBV-LCL (naturally processed epitope). As to conditions: subject 5 clones #1-5 and #17-5.
Where [3] appears, read: subject 20, E6 16-40 region (eight clones), E6 31-55 region (four clones).
The mark [4] stands for this setting: subject 20 clones #60-20, #127-20, #138-20.

Entries after “also recorded” stand apart in the source; their conditions may differ. Where no end group is shown, it is not given here.

Experimental findings from patent US20060182763A1, “CD8 T cell epitopes in HPV 16 E6 and E7 proteins and uses thereof” (priority 2005, published 2006) are described below.

Regarding “TTIHDIILEC (Human Papilloma Virus 16; CHAIN residues 28-37 of the E6 protein) [E6 28-37]”, the “ELISPOT response (spot-forming units) of T cell clones” value in the assay on T cell clones [1] is given as “similar”.

As for “LQTTIHDIILECVYC (Human Papilloma Virus 16; CHAIN residues 26-40 of the E6 protein) [E6 26-40]”, the “screen-positive T cell clones positive for the 15-mer peptide on retest” value (“screen-positive T cell clones positive” below) is “none of 5” in the assay with T cell clones [1] (subject 5); 10 clones in the assay on T cell clones [1] (subject 7, of 10 (E6 16-40 region) or six (E6 46-70 region) clones); 10 clones in the assay on T cell clones [1] (subject 15, of 14 clones positive for E6 16-40 region); “eight” with T cell clones [1] (setting [3]). Further, the “T cell clones positive in screening ELISPOT” value with T cell clones [1] (subject 15) is on record as “Thirteen”. Moreover, the “retest of screen-positive T cell clones (ELISPOT)” value (“retest … (ELISPOT)” below) is listed as “confirming their specificity” with T cell clones [1] (subject 15) and “confirmed” in the assay on T cell clones [1] (subject 15, listed as E6 24-60). The “ELISPOT response (spot-forming units) of T cell clones” value with T cell clones [1] is recorded as “similar”.

Take “E6 136-158: pool of overlapping 15-mers covering HPV16 E6 136-158 (RGRWTGRCMSCCRSSRYRRETQK; cysteine pairing not given here; also: pool of overlapping 15-mers)”: the “CD8 T cell response to HPV 16 E6 region” value in the assay on CD8 T cell line (Subject 5) is “x”.

As to “PRKLPQLCTELQTTI (Human Papilloma Virus 16; CHAIN residues 16-30 of the E6 protein) [E6 16-30]”, in the assay with T cell clones [1] (subject 15), the “T cell clones positive in screening ELISPOT” value is on record as “one” and the “retest … (ELISPOT)” value is reported as “negative; also recorded: false positives”.

Consider “HDIILECVYCKQQLL (Human Papilloma Virus 16; CHAIN residues 31-45 of the E6 protein) [E6 31-45]”, for which, in the assay with T cell clones [1] (setting [3]), the “screen-positive T cell clones positive” value is on record as “four”.

For “E6 31-39: HPV16 E6 9-mer peptide, residues 31-39 (HDIILECVY; Human Papilloma Virus 16; CHAIN residues 31-39 of the E6 protein)”, the “ELISPOT response (spot forming units) of T cell clones” value (“ELISPOT response (spot forming units)” below) in the assay with T cell clones [1] (setting [4]) was “positive; also recorded: similar; also recorded: large numbers of spot forming units”.

Regarding “DFAFRDLCIVY (Human Papilloma Virus 16; CHAIN residues 51-61 of the E6 protein) [E6 51-61]”, the “ELISPOT response (spot forming units)” value with T cell clones [1] (subject 7 subdominant epitope, clones #15-7, #41-7, #54-7, #86-7) is given as “more number of spot forming units”.

For “E6 141-155: HPV16 E6 15-mer peptide, residues 141-155 (GRCMSCCRSSRTRRE; Human Papilloma Virus 16; CHAIN residues 141-155 of the E6 protein)”, the “screen-positive T cell clones positive” value in the assay on T cell clones [1] (subject 5) is recorded as “Two”. Further, the “ELISPOT response of T cell clones” value with T cell clones [1] was “confirmed”. Further, the “recognition of E6-vac infected autologous LCL / natural processing” value in the assay with T cell clones [2] is “not with E6-vac infected autologous LCL; also recorded: not the E6-vac infected ones”.

For the substance “QLCTELQTTIHDIIL (QLCTELETTIHDIIL; Human Papilloma Virus 16; CHAIN residues 21-35 of the E6 protein) [E6 21-35]”, in the assay with T cell clones [1] (subject 15), the “T cell clones positive in screening ELISPOT” value is “three” and the “retest … (ELISPOT)” value is given as “negative; also recorded: false positives”.

Regarding “E6 31-37: HPV16 E6 7-mer, residues 31-37 (HDIILEC; Human Papilloma Virus 16; CHAIN residues 31-37 of the E6 protein)”, the “ELISPOT response (spot forming units)” value in the assay with T cell clones [1] (setting [4]) was “Less number of spot forming units”.

For the substance “E6 143-153: HPV16 E6 11-mer, residues 143-153 (CMSCCRSSRTR; Human Papilloma Virus 16; CHAIN residues 143-153 of the E6 protein)”, the “ELISPOT response of T cell clones” value in the assay on T cell clones [1] is “None of the 9-mers and the 11-mers was positive”.

In the case of “E6 61-85: pool of three overlapping 15-mers covering HPV16 E6 61-85 (YRDGNPYAVCDKCLKFYSKISEYRH; cysteine pairing not given here; also: pool of overlapping 15-mers)”, the “CD8 T cell response to HPV 16 E6 region” value with CD8 T cell line (Subject 18) and in the assay on CD8 T cell line (Subject 23) was “x” in each case.

As to “IHDIILEC (Human Papilloma Virus 16; CHAIN residues 30-37 of the E6 protein) [E6 30-37]”, the “ELISPOT response (spot forming units)” value in the assay with T cell clones [1] (setting [4]) is “Less number of spot forming units”.

For “E6 30-38: HPV16 E6 9-mer peptide, residues 30-38 (IHDIILECV; Human Papilloma Virus 16; CHAIN residues 30-38 of the E6 protein)”, the “ELISPOT response (spot forming units)” value is listed as “positive” in the assay on T cell clones [1] (subject 7 dominant epitope, clones #12-7, #40-7, #59-7) and “positive; also recorded: similar; also recorded: large numbers of spot forming units” in the assay with T cell clones [1] (setting [4]).

Turning to “E6 144-154: HPV16 E6 11-mer, residues 144-154 (MSCCRSSRTRR; Human Papilloma Virus 16; CHAIN residues 144-154 of the E6 protein)”, the “ELISPOT response of T cell clones” value in the assay on T cell clones [1] was “None of the 9-mers and the 11-mers was positive”.

For “AFRDLCIVY (Human Papilloma Virus 16; CHAIN residues 53-61 of the E6 protein) [E6 53-61]”, in the assay with T cell clones [1] (subject 1 clones 2, 9 and 69), the “ELISPOT response of E6-specific T cell clones” value is “response”.

Consider “LEDLLMGT (Human Papilloma Virus 16; CHAIN residues 79-86 of the E7 protein) [E7 79-86]”, for which, in the assay with T cell clones [1], the “ELISPOT response of 27G6 clone” value is given as “smaller response; also recorded: did not show any activity above the background”.

“E6 91-115: pool of three overlapping 15-mers covering HPV16 E6 91-115 (YGTTLEQQYNKPLCDLLIRCINCQK; cysteine pairing not given here; also: pool of overlapping 15-mers)”: the “CD8 T cell response to HPV 16 E6 region” value with CD8 T cell line (Subject 18) is on record as “X”.

As for “E6 142-152: HPV16 E6 11-mer, residues 142-152 (RCMSCCRSSRT; Human Papilloma Virus 16; CHAIN residues 142-152 of the E6 protein)”, the “ELISPOT response of T cell clones” value with T cell clones [1] was “None of the 9-mers and the 11-mers was positive”.

Consider “E6 32-38: HPV16 E6 7-mer, residues 32-38 (DIILECV; Human Papilloma Virus 16; CHAIN residues 32-38 of the E6 protein)”, for which the “ELISPOT response (spot forming units)” value in the assay on T cell clones [1] (setting [4]) was “Less number of spot forming units”.

Take “EDLLMGTL (Human Papilloma Virus 16; CHAIN residues 80-87 of the E7 protein) [E7 80-87]”: the “ELISPOT response of 27G6 clone” value in the assay with T cell clones [1] is given as “smaller response; also recorded: partial IFN-γ secretion”.
